Measured values reported in EP0303391B1, “Optical isomers of a spiroquinuclidine derivative” (State of Israel Represented by the Prime Minister's Office …, priority 1987, dated 1989).
Like-named read-outs stand apart in the source and are kept apart here.

Legend:
[1] = tested on: isolated guinea pig ileum; assay: Isolated guinea pig ileum induced contraction; type: cell-based
M₁ receptors = target: T1, M₁ receptors (Rattus norvegicus, UniProt P08482); assay: biochemical; type: binding; conditions: for a:c: ratio Ki(3H-PZ):Ki(3H-CD)
T1 sequence (P08482 1-460): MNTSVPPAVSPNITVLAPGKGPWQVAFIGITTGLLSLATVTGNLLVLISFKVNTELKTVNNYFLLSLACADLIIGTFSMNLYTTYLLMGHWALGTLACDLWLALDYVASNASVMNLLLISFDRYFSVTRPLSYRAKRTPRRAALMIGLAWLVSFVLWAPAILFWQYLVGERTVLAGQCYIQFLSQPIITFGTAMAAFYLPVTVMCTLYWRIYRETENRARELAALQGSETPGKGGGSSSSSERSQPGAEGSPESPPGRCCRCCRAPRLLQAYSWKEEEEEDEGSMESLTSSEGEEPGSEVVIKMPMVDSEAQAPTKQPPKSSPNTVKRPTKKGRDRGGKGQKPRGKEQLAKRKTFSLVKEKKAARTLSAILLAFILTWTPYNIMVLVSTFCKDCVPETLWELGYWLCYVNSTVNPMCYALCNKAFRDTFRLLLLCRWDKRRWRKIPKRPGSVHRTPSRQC

LD50 in mice = type: in vivo; conditions: mouse, in vivo, HCl salts, read-out: LD₅₀
Description: (§1) The LD₅₀ in mice of (+)-, (-) and [for comparison] There are no significant differences in the toxicity of the tested compounds.

[2] = tested on: AF64A and saline-injected rats; assay: Passive avoidance (step-through) retention in AF64A and saline-injected rats; type: in vivo, Sprague-Dawley rats; conditions: for Retention latency after 72 hours: 0.2mg./kg. per os post-training, cut-off 600 secs., nine rats per group; for net latencies of AF64A-treated groups compared with the group treated with double distilled water: p < 0.005 for (-)-, p < 0.05 for (±)-cis
Description: Ethylcholine aziridinium ion (hereinafter denoted AF64A) is a selective presynaptic cholinergic neurotoxin, which on intracerebroventricular injection in rats induces persistent cholinergic hypofunction that mimics the cortical and hippocampal cholinegic deficiency and the cognitive impairments reported in SDAT. Accordingly, the possibility of reversal of the AF64A-induced effects by (-)- and [for comparison] (±)-cis-2-methylspiro(1,3-oxathiolan-5,3′)quinuclidine in the passive avoidance task was studied. In this experiment, the results of which are reported in Table 4, we investigated the effect of these substances (0.2mg./kg/., per os) on the retention after 72 hours of an inhibitory learning (passive avoidance-step through) task in AF64A and saline-injected rats, using a post-training drug treatment paradigm. The surgery carried out on the test animals (Sprague-Dawley rats raised by Charles River) was similar to that described in our prior published European Patent Application No. 0205247. The behavioral studies were performed one month after surgery.
The behavioral testing procedure comprised two phases, 1 and 2. In a pretest training procedure each rat was individually placed in a small lighted front compartment of a two-compartment box. After a 60 secs. familiarization/adaptation period, the door separating the two compartments was opened and a clock activated. The rat's latency to enter the large dark compartment of the box (to step-through) was measured. Immediately following entry into the dark compartment, the rat was subjected to an inescapable scrambled foot shock applied to the grid floor (0.6mA for 3 secs.). Sixty secs. after the termination of the shock, at the end of the training procedure, the rat was removed from the dark compartment and double distilled water, (-)- and (±)-cis-2-methylspiro(1,3-oxathiolan-5,3′)quinuclidine were administered per os. Rats were then returned to their home cage. Retention of the passive avoidance task was measured […]. after training by again placing the rat in the lighted front compartment, and after a 60 secs. adaptation period, measuring the latency to enter the dark compartment. The test session ended when a rat entered the dark compartment or after 600 secs. had elapsed. […]

muscarinic receptors [3] = assay: Displacement of 3H-cis-dioxolane (3H-CD) from rat forebrain homogenates; type: binding
muscarinic receptors [4] = type: binding, rat; conditions: for Ki: rat forebrain homogenates, mean ± spread (n), Ki = IC50 ÷ (1 + C/KD), read-out: Ki(^3H-QNB)
mice = assay: LD50 in mice; type: in vivo; conditions: HCl salts
Description: as §1

[5] = index of M1 versus M2 selectivity

CC1OC2(CS1)CN1CCC2CC1 (single isomer, unassigned; (+)) [(+)-cis-isomer, (+)-cis-2-methylspiro(1,3-oxathiolan-5,3')quinuclidine]
type of activity [1]: inactive as agonist | Ki (M₁ receptors; Ki(^3H-PZ)): 9600 nM | LD50 (LD50 in mice; female mice): 45 mg/kg | LD50 (LD50 in mice; male mice): 39.1 mg/kg

CC1OC2(CS1)CN1CCC2CC1 (racemic) [(±)-cis-isomer, (±)-cis-2-methylspiro(1,3-oxathiolan-5,3')quinuclidine]
type of activity [1]: agonist | Retention latency after 72 hours ([2]; AF64A-treated rats): 407.9 (±72.1) seconds | net latencies of AF64A-treated groups compared with the group treated with double distilled water ([2]; AF64A-treated rats): significantly longer | Retention latency after 72 hours ([2]; saline-treated rats): 478.2 (±65.7) seconds | a:b (M₁ receptors): 0.10 | Ki (M₁ receptors; Ki(^3H-PZ)): 600 nM | a:c (M₁ receptors; [5]): 1.4 | LD50 (LD50 in mice; female mice): 40.8 mg/kg | LD50 (LD50 in mice; male mice): 45 mg/kg

CC(=O)OCC[N+](C)(C)C [Acetylcholine]
EC50 ([1]; Cavia porcellus, induced contraction of isolated guinea pig ileum): 50 nM

O=C1CCCN1CC#CCN1CCCC1 [Oxotremorine]
Ki (muscarinic receptors [3]; footnote *: expressed in M x 10^-10): 0.96 ± 0.42 nM | Ki (M₁ receptors; Ki(^3H-PZ)): 600 nM | a:c (M₁ receptors; [5]): 625 | a:b (M₁ receptors; ratio Ki(3H-PZ):Ki(3H-QNB), index of M1 versus M2 selectivity): 0.35 | Ki (muscarinic receptors [4]): 1700 ± 300 nM

C[N+](C)(C)CC#CCOC(=O)Nc1cccc(Cl)c1 [McN-A-343]
Ki (muscarinic receptors [3]; mean ± spread (n), Ki = IC50 ÷ (1 + C/KD)): 400 ± 100 nM | a:b (M₁ receptors): 0.35 | Ki (M₁ receptors; Ki(^3H-PZ)): 4900 nM | a:c (M₁ receptors; [5]): 12.25 | Ki (muscarinic receptors [4]): 14200 ± 1410 nM

CC1OC2(CS1)CN1CCC2CC1 (single isomer, unassigned; (-)) [(-)-cis-isomer, (-)-cis-2-methylspiro(1,3-oxathiolan-5,3')quinuclidine]
type of activity [1]: agonist | Retention latency after 72 hours ([2]; AF64A-treated rats): 563.5 (±23.6) seconds | net latencies of AF64A-treated groups compared with the group treated with double distilled water ([2]; AF64A-treated rats): significantly longer | Retention latency after 72 hours ([2]; saline-treated rats): 474 (±61.3) seconds | Ki (M₁ receptors; Ki(^3H-PZ)): 1100 nM | times more potent in ³H-QNB displacement than its racemate (muscarinic receptors [4]; relative to (±)-cis-isomer): 2.2 | LD₅₀ (mice; female mice): 40 mg/kg | LD₅₀ (mice; male mice): 35 mg/kg

CC1OC2(CS1)CN1CCC2CC1 (racemic) [(±)-trans-isomer, (±)-trans-2-methylspiro(1,3-oxathiolan-5,3')quinuclidine]
type of activity [1]: agonist | a:b (M₁ receptors): 0.59 | a:c (M₁ receptors; index of M1 versus M2 selectivity, listed as 3): 8.1 | Ki (M₁ receptors; read-out: Ki(^3H-PZ)): 14600 ± 2900 nM
